Measured values from a flash point compilation (Sun et al. 2020).
Values joined by “and” are separate entries in the source; they are usually repeats but may differ in a detail not shown here. Equal entries are not always repeated.

flash point | Structure (SMILES)
-17 °C | C1=CCCCC1 [cyclohexene]

Remark: another data set of the same source

flash point | Structure (SMILES)
92.00 °C | N#CCCC[Si](Cl)(Cl)Cl [Trichloro(3-cyanopropyl) Silane]
146.00 °C | CO[Si](CCC1CCC2OC2C1)(OC)OC (stereo unspecified) [2-(3,4-epoxycyclohexyl)ethyltrimethoxysilane]
85.00 °C | CCCCCC[Si](Cl)(Cl)Cl [n-Hexyltrichlorosilane]
60.00 °C | CCCCC=C[Si](Cl)(Cl)Cl [1-Hexenyltrichlorosilane]
27.00 °C | CC[Si](OC)(OC)OC [Ethyltrimethoxysilane] [listing 1 of 2 here]
-3.00 °C | C[Si](C)(C)O[Si](C)(C)C [Hexamethyldisiloxane]
15.00 °C | C[Si](C)(C)I [Iodotrimethylsilane]
28.00 °C | CC(C)N(C(C)C)[Si](C)(C)C [(Diisopropylamino)trimethylsilane]
143.00 °C | CCCCCCCCCCCC[Si](C)(Cl)Cl [n-Dodecylmethyldichlorosilane]
12.00 °C | C[Si](C)(C)C[Si](C)(C)C [Bis(trimethylsilyl)methane]
40.00 °C | C[Si](C)(C)c1ccccc1 [Trimethylphenylsilane] [listing 1 of 2 here]
76.00 °C | CC[Si](CC)(CC)O[Si](CC)(CC)CC [Hexaethyldisiloxane]
22.00 °C | C[Si](C)(Cl)CCl [Chloromethyldimethylchlorosilane]
62.00 °C | C[Si](C)(C)O[Si](C)(C)O[Si](C)(C)O[Si](C)(C)C [Decamethyltetrasiloxane]
12.00 °C | CCCCCC[SiH3] [Hexylsilane]
0.00 °C | C[Si](C)(C)OC(=O)C(F)(F)F [Trimethylsilyltrifluoroacetate]

flash point | Structure (SMILES)
-3.00 °C | CC[SiH](CC)CC [Triethylsilane]
7.00 °C | C=CC[Si](C)(C)C [Allyltrimethylsilane]
50.00 °C | CCO[Si](OCC)(OCC)OCC [Tetraethoxysilane]
30.00 °C | CC[Si](Cl)(CC)CC [Triethylchlorosilane]
100.00 °C | CCCCCCCC[Si](OCC)(OCC)OCC [Octyltriethoxysilane]
26.00 °C | CC[Si](CC)(CC)N(C)C [(N,N-Dimethylamino)triethylsilane]
-18.00 °C | C[Si](C)(C)Cl [Trimethylchlorosilane]
16.00 °C | C[Si](C)(C)CBr [Bromomethyltrimethylsilane]
-30.00 °C | CO[Si](C)(C)C [Methoxytrimethylsilane]
55.00 °C | C[Si](C)(C)[SiH]([Si](C)(C)C)[Si](C)(C)C [Tris(trimethylsilyl)silane]
76.00 °C | CCC[Si](Cl)(CCC)CCC [Tri-n-propylchlorosilane]
67.00 °C | C[SiH](C)O[Si](O[SiH](C)C)(O[SiH](C)C)O[SiH](C)C [Tetrakisdimethylsiloxysilane]
-3.00 °C | CC#C[Si](C)(C)C [1-Trimethylsilylpropyne]
90.00 °C | CC(CCl)C[Si](C)(Cl)Cl (stereo unspecified) [3-Chloro-2-methylpropylmethyldichlorosilane]
66.00 °C | C[Si]1(C)N[Si](C)(C)N[Si](C)(C)N[Si](C)(C)N1 [Octamethylcyclotetrasilazane]
92.00 °C | C=C(C)C(=O)OCCC[Si](OC)(OC)OC [3-Methacryloxypropyltrimethoxysilane]

Structure (SMILES) | flash point
C=C(C)O[Si](C)(C)C [Trimethyl[(1-methylethenyl)oxy]silane] | -1.00 °C
CC(=O)OC[Si](C)(C)C [Acetoxymethyltrimethylsilane] | 20.00 °C

Remark: another data set of the same source

flash point | Structure (SMILES)
113.00 °C | COCCOCCOCCOC [1,2-bis(2-methoxyethoxy)ethane]
68.00 °C | C=CC(O)CCCCC (stereo unspecified) [oct-1-en-3-ol]
76.00 °C | CC(=O)c1ccccn1 [1-(2-pyridyl)ethanone]
33.00 °C | COCC(C)O (stereo unspecified) [1-methoxypropan-2-ol]
160.00 °C | CC(CO)(CO)CO [2-(hydroxymethyl)-2-methylpropane-1,3-diol]
60.00 °C | CC(C)C(C)C(C)CO (stereo unspecified) [2,3,4-trimethylpentan-1-ol]
116.00 °C | CCCCCCCCCCCCCO [tridecan-1-ol]
145.00 °C | CCCCCCCCCCCCCCO [tetradecan-1-ol]
104.44 °C | CCCCCCCCCCO [decan-1-ol]
113.00 °C | CCCCC(CC)(CO)CO [2-butyl-2-ethylpropane-1,3-diol]
90.56 °C | CCCCCCCCO [octan-1-ol]
72.00 °C | CC(C)(C)c1cccc(C(C)(C)C)n1 [2,6-ditert-butylpyridine]
64.00 °C | Clc1ccccn1 [2-chloropyridine]
54.00 °C | CCC(C)CC(O)CC (stereo unspecified) [5-methylheptan-3-ol]
187.80 °C | OCc1ccc(CO)cc1 [[4-(hydroxymethyl)phenyl]methanol]
58.33 °C | CCC(CC)CO [2-ethylbutan-1-ol]
240.00 °C | OCC(CO)(CO)CO [2,2-bis(hydroxymethyl)propane-1,3-diol]
62.00 °C | C=CCOc1ccccc1 [allyloxybenzene]
54.00 °C | CCCCCC(C)N (stereo unspecified) [heptan-2-amine]
15.00 °C | COCCCl [1-chloro-2-methoxyethane]
-73.00 °C | C/C=C\C [(z)-but-2-ene]
22.22 °C | CCC(C)O (stereo unspecified) [butan-2-ol]
18.33 °C | C1COCCO1 [1,4-dioxane]
107.00 °C | CCC(CC)(CO)CO [2,2-diethylpropane-1,3-diol]
54.00 °C | CCCCC(C)(O)CC (stereo unspecified) [3-methylheptan-3-ol]
-46.00 °C | C=COCC [ethoxyethylene]
79.00 °C | OCCCO [propane-1,3-diol]
-30.00 °C | C1=CCCCC1 [cyclohexene]
46.00 °C | CC(C)CCOCCC(C)C [1-isopentyloxy-3-methylbutane]

Structure (SMILES) | flash point
CC(Cl)OC(C)Cl (stereo unspecified) [1-chloro-1-(1-chloroethoxy)ethane] | 55.00 °C
CCNCC [N-ethylethanamine] | -28.00 °C
CC(O)CCl (stereo unspecified) [1-chloropropan-2-ol] | 51.00 °C
OCCCCCO [pentane-1,5-diol] | 129.44 °C
ClCCOCCCl [1-chloro-2-(2-chloroethoxy)ethane] | 55.00 °C
CCCCCCO [hexan-1-ol] | 73.89 °C
COc1ccccc1OC [1,2-dimethoxybenzene] | 72.00 °C
CCCCOCC1CO1 (stereo unspecified) [2-(butoxymethyl)oxirane] | 41.00 °C
OCCCCO [butane-1,4-diol] | 121.11 °C
Nc1ccccc1Cl [2-chloroaniline] | 98.00 °C
C=CC1CC=CCC1 (stereo unspecified) [4-vinylcyclohexene] | 21.00 °C
CC(C)(C)CCO [3,3-dimethylbutan-1-ol] | 29.00 °C
CCN(CC)CCO [2-diethylaminoethanol] | 51.50 °C
CCCC(C)O (stereo unspecified) [pentan-2-ol] | 40.56 °C
OCCOCCO [2-(2-hydroxyethoxy)ethanol] | 138.33 °C and 143.00 °C
CCC(C)(C)O [2-methylbutan-2-ol] | 20.00 °C
Clc1ccc(Oc2ccccc2)cc1 [1-chloro-4-(phenoxy)benzene] | 113.00 °C
Nc1cccc(Cl)c1 [3-chloroaniline] | 118.00 °C
OCc1ccco1 [2-furylmethanol] | 83.33 °C
OCCOCCOCCO [2-[2-(2-hydroxyethoxy)ethoxy]ethanol] | 162.78 °C
CCCCCCC(C)O (stereo unspecified) [octan-2-ol] | 85.00 °C
CCCCOCCOCCOCCCC [1-[2-(2-butoxyethoxy)ethoxy]butane] | 101.00 °C
CN(C)C=O [N,N-dimethylformamide] | 57.00 °C
CC(O)CCO (stereo unspecified) [butane-1,3-diol] | 108.89 °C
c1ccc(OCC2CO2)cc1 (stereo unspecified) [2-(phenoxymethyl)oxirane] | 115.00 °C

Remark: another data set of the same source

Structure (SMILES) | flash point
CCNCC [N-ethylethanamine] | -29.00 °C
CCCCCCCCCCCCCO [tridecan-1-ol] | 121.00 °C
CCCCCCCCCCCCCCO [tetradecan-1-ol] | 141.00 °C
CCCCCCCCCCO [decan-1-ol] | 82.00 °C
CCCCCCCCO [octan-1-ol] | 81.00 °C
CCCCCCO [hexan-1-ol] | 63.00 °C
CCCCOCC1CO1 (stereo unspecified) [2-(butoxymethyl)oxirane] | 54.00 °C
CCC(CC)CO [2-ethylbutan-1-ol] | 53.00 °C
CCCC(C)O (stereo unspecified) [pentan-2-ol] | 35.00 °C
CCC(C)(C)O [2-methylbutan-2-ol] | 19.00 °C
CCCCCCC(C)O (stereo unspecified) [octan-2-ol] | 76.00 °C
CCC(C)O (stereo unspecified) [butan-2-ol] | 24.00 °C
C1COCCO1 [1,4-dioxane] | 12.00 °C
CCCCOCCOCCOCCCC [1-[2-(2-butoxyethoxy)ethoxy]butane] | 118.00 °C
CN(C)C=O [N,N-dimethylformamide] | 67.00 °C

Remark: another data set of the same source

flash point | Structure (SMILES)
66 °C | Clc1ccccn1 [2-chloropyridine]
-12 °C | C1=CCCCC1 [cyclohexene]

Remark: another data set of the same source

flash point | Structure (SMILES)
120.00 °C | CCO[Si](OCC)(OCC)c1ccccc1 [Phenyltriethoxysilane]
50.00 °C | C[Si](C)(C)O[SiH](O[Si](C)(C)C)O[Si](C)(C)C [Tris(trimethylsiloxy)silane]
14.00 °C | C[Si]1(C)CCCCO1 [1,1-Dimethyl-1-sila-2-oxacyclohexane]
27.00 °C | CC[Si](OC)(OC)OC [Ethyltrimethoxysilane] [listing 2 of 2 here]
40.00 °C | C[SiH](C)c1c(F)c(F)c(F)c(F)c1F [Dimethyl(pentafluorophenyl) silane]
60.00 °C | C[Si](Cl)(Cl)CCC#N [Cyanoethylmethyldichlorosilane]
26.00 °C | CCO[Si](C)(C)CCl [Chloromethyldimethylethoxysilane]
40.00 °C | C[Si](C)(C)c1ccccc1 [Trimethylphenylsilane] [listing 2 of 2 here]
64.00 °C | CCCCCCC[Si](Cl)(Cl)Cl [n-Heptyltrichlorosilane]
77.00 °C | Cl[Si](Cl)(Cl)C1CCCC1 [Cyclopentyltrichlorosilane]
